# Test results from US20230302036A1, “COMPOSITIONS FOR TREATMENT OF SPINAL MUSCULAR ATROPHY” (priority 2020, published 2023).
# Oligonucleotides are written 5' to 3', each unit as a sugar letter and its base; * is a phosphorothioate linkage, no mark a phosphodiester; rarer units and linkages stand in square brackets, end groups in braces. Plain capitals give the bases only. e = 2'-O-(2-methoxyethyl) (MOE); [5mC] = 5-methylcytosine
# What was measured:
# SMN2 pre-mRNA = test: Transcriptional activation by RT-qPCR of SMN2 pre-mRNA in HEK293T cells; assay type: cell-based, human; conditions: HDAC inhibitor alone
# Procedure: (FIG. 5D and FIG. 5E) Transcriptional activation was assessed by RT-qPCR. (FIG. 5F) HEK293T cells with 3 nM ASO1 and 10 mM VPA for 24 hr. Bars indicate mean transcriptional activation ± SD ratios between precursors of SMN2 and GAPDH as the control gene. Statistical significance was analyzed by two-tailed Student’s t-tests. P < 0.05 was considered statistically significant.
# HEK293T, HeLa, and SMA type I homozygous and carrier fibroblasts 3813 and 3814 (Coriell Cell Repositories, Camden, New Jersey, United States) were grown in Dulbecco’s modified Eagle’s medium (DMEM) containing 4.5 g of glucose and 10% fetal bovine serum (Gibco) at 37° C. Cells were plated at a density of 2×10^5 cells per well in 12-well plates 24 hr before transfection. siRNA (25 nM), plasmid (500 ng), or ASO (25 nM) transfections were performed 24 hr after cells were plated, using 3 µl of Lipofectamine 2000 (Thermo Fisher Scientific) per well in 12-well plates. 24-48 h later, cells were treated with Trichostatin A (Sigma, T8552), Valproic Acid (Sigma, P4543), 5-Azacytidine (Sigma, A2385) or vehicle for the indicated time, and harvested for downstream procedures.
# SMA = conditions: VPA plus carnitine; cited from earlier work
# [1] = test system: H3K27 trimethylation over the SMN2 gene; test: ChIP-qPCR of H3K27 trimethylation over the SMN2 gene in HEK293T cells; assay type: cell-based, human; conditions: ASO1 transfection
# Procedure: FIGS. 10A-10D show control experiments for the opposing roles of ASO1 on chromatin and splicing. […] Top: control Western blot for efficient expression of the c-Myc-SMN fusion protein encoded by plasmid pcDNA3.1+SMN1mycHIS (Addgene, cat.# 71687) using anti-tubulin (tub.) as loading control. Bottom: SMN2 E7 RT-PCR of cells co-transfected with ASO1 and plasmid. […] Distribution of these histone marks was assessed by ChIP-qPCR, with amplicons mapping near the numbered exons (E) and introns (i). Three independent immunoprecipitation replicates were conducted per experiment. Data are represented as mean ± S.D. (n = 5; in all cases p was much higher than 0.05, two-tailed Student’s t test). […] Top: control Western blot for efficient expression of the GFPRNaseH fusion protein encoded by plasmid pEGFP-RNASEH1 (Addgene, cat.# 108699), using anti-actin (act.) as loading control. Bottom: SMN2 E7 RT-PCR of cells co-transfected with ASO1 and the RNase H plasmid. […] Top: control Western blot for efficient AGO1 knockdown using anti-tubulin (tub.) as loading control. […]
# Approximately 2×10^6 HEK293T cells per sample were treated for 10 min in 1% (v/v) formaldehyde at room temperature to crosslink protein-DNA complexes. […] Immunoprecipitated DNA (1.5 µl) and serial dilutions of the 10% input DNA (1:4, 1:20, 1: 100, and 1:500) were analyzed by SYBR-Green real-time qPCR.
# [2] = test system: H3K9me2 along SERF1A, MYOD, GAPDH; test: Specificity control ChIP-qPCR of H3K9me2 on SERF1A, MYOD and GAPDH in HEK293T cells; assay type: cell-based, human
# Procedure: FIGS. 6A-6D show antisense oligonucleotides and their effects on chromatin. […] Uppercase, exonic nucleotide sequence. Lowercase, intronic sequences. Upstream highlight, binding site for ASO1. Downstream highlight, binding site for ASO2. Levels of H3K9me2 deposition along small EDRK-rich factor 1A (SERF1A, upstream of SMN2) (FIG. 6B), Myoblast Determination Protein (MYOD) (FIG. 6C), and Glyceraldehyde 3-phosphate dehydrogenase (GAPDH) (FIG. 6D), were assessed by ChIP-qPCR in HEK293T cells. Data represented as mean ± S.D. (n = 4, *p < 0.05, two-tailed Student’s t test).
# (§1) Approximately 2×10^6 HEK293T cells per sample were treated for 10 min in 1% (v/v) formaldehyde at room temperature to crosslink protein-DNA complexes. Crosslinking was stopped with glycine at a final concentration of 125 mM. Cells were washed twice with cold PBS and swelled on ice for 10 min in 25 mM HEPES pH 8, 1.5 mM MgCl2, 10 mM KCl, 0.1% NP-40, 1 mM DTT and 1× protease inhibitor cocktail set III (Calbiochem). Following Dounce homogenization, the nuclei were collected and resuspended in 1 ml sonication buffer (50 mM HEPES pH 8, 140 mM NaCl, 1 mM EDTA, 0.1% sodium deoxycholate, 0.1% SDS and 1× protease inhibitor cocktail). […] Immunoprecipitated DNA (1.5 µl) and serial dilutions of the 10% input DNA (1:4, 1:20, 1: 100, and 1:500) were analyzed by SYBR-Green real-time qPCR.
# [3] = test system: H3K9me2 along the human SMN2 transgene; test: ChIP-qPCR of H3K9me2 along the human SMN2 transgene in brain and liver of P7 SMA mice; assay type: in vivo, mouse; conditions: P7 SMA mice injected with ASO1
# Procedure: (§2) H3K9me2 (left) and total RNAPII (right) distribution along the human SMN2 transgene, assessed by ChIP-qPCR, in brain (FIG. 12A) and liver (FIG. 12B) of P7 SMA mice injected with ASO1. Vertical arrows indicate the approximate location of the target site for ASO1 on the pre-mRNA. Three independent immunoprecipitation replicates were conducted per experiment. Data are represented as mean ± S.D. (n = 3, *p < 0.05, two-tailed Student’s t test).
# as §1, with “cocktail). DNA was sonicated in an ultrasonic bath (Bioruptor Diagenode) to an average length of 200-500 bp. After addition of 1% (v/v) Triton X-100, samples were centrifuged at 15,000 ×g.” for “cocktail).”
# [4] = test system: total RNAPII along the human SMN2 transgene; test: ChIP-qPCR of total RNAPII along the human SMN2 transgene in brain and liver of P7 SMA mice; assay type: in vivo, mouse; conditions: P7 SMA mice injected with ASO1
# Procedure: as §2
# as §1, with “cocktail). DNA was sonicated in an ultrasonic bath (Bioruptor Diagenode) to an average length of 200-500 bp. After addition of 1% (v/v) Triton X-100, samples were centrifuged at 15,000 ×g.” for “cocktail).”
Compound,levels of SMN2 pre-mRNA (promoter-proximal amplicon) (SMN2 pre-mRNA),clinical effectiveness in SMA (SMA),H3K27 trimethylation over the SMN2 gene [1],"H3K9 dimethylation in control genes (same TAD: SERF1A; outside TAD: MYOD, GAPDH) [2]",H3K9 dimethylation on the SMN2 transgene in liver and brain [3],RNAPII accumulation on the SMN2 transgene in liver and brain [4]
"CCCC(CCC)C(=O)O [VPA, valproic acid]",increased the levels of SMN2 pre-mRNA,failed to demonstrate effectiveness,,,,
ASO1: 5′-ATTCACTTTCATAATGCTGG-3′ 2′-O-methoxyethyl-modified oligonucleotide with phosphorothioate backbone and all 5-methyl cytosines; nusinersen variant with 2-nucleotide extension (antisense eA*eT*eT*e[5mC]*eA*e[5mC]*eT*eT*eT*e[5mC]*eA*eT*eA*eA*eT*eG*e[5mC]*eT*eG*eG),,,not affected,neither ASO1 nor ASO2 promoted H3K9 dimethylation,higher H3K9 dimethylation,RNAPII accumulation
